# According to patent publication US20120258127A1 (priority 2010, published 2012):
# Read-outs that look alike come from different tables or passages of the source.
# How the values were obtained:
# [1] = test system: CSFV reference strain Alfort 187; format: cell-based, porcine
# CSFV isolate = test system: CSFV isolate; set-up: species or system pigs; settings: pig, in vivo
# [2] = test system: PBMC from vaccinated and challenged pigs; format: cell-based
compound,measurement,setting,value
N[C@H](Cc1c[nH]c2ccccc12)C(=O)O [D-tryptophan],Effect on IFN-γ mediated reduction in the proportion of CSFV infected cells,[1],unaffected
N[C@@H](Cc1c[nH]c2ccccc12)C(=O)O [L-tryptophan],Effect on IFN-γ mediated reduction in the proportion of CSFV infected cells,[1],unaffected
IFN-α,Proportion of infected cells,[1],eliminated the infection
L-N-6-(1-iminoethyl)lysine hydrochloride,Effect on IFN-γ mediated reduction in the proportion of CSFV infected cells,[1]; after 48 hours,unaffected
LRAAMVEYSYIFLDEY [SEQ ID NO:2],Occurrence of symptoms of CSFV infection compared with control group,CSFV isolate,reduced occurrence of symptoms of CSFV infection
same,Recognition of individual antigenic peptides (IFN-γ),[2],recognition
NIMARTDHPEPIQLAY [SEQ ID NO:3],Occurrence of symptoms of CSFV infection compared with control group,CSFV isolate,reduced occurrence of symptoms of CSFV infection
same,Recognition of individual antigenic peptides (IFN-γ),[2],recognition
NKYFEPRDSYFQQYML [SEQ ID NO:1],Occurrence of symptoms of CSFV infection compared with control group,CSFV isolate,reduced occurrence of symptoms of CSFV infection
